Results from patent US8604016B2, “Heterocyclic inhibitors of glutaminase” (Calithera Biosciences Inc., priority 2011, dated 2013).

biological target: recombinant form of Glutaminase 1 (GAC) (Homo sapiens, UniProt O94925); experiment: Recombinant Enzyme Assay (GAC coupled to GDH, NADH absorbance, no preincubation); type: biochemical; details: no preincubation; read-out: GAC Delta N2 IC50 no preinc
Procedure: Enzymatic reaction was started with the addition of 50 μL of enzyme solution (50 mM Tris-HCl pH 8.0, 0.2 mM EDTA, 150 mM K2HPO4, 0.1 mg/ml BSA, 1 mM DTT, 10 ppm antifoam, 4 units/ml GDH, 4 mM adenosine diphosphate, and 4 nM GAC) and read in a Molecular Devices M5 plate reader at 20° C. The plate reader was configured to read absorbance (λ=340 nm) in kinetic mode for 15 minutes. Data was recorded as milli-absorbance units per minute and slopes were compared to a control compound and a DMSO-only control on the same plate. Compounds with slopes less than the DMSO control were considered inhibitors and plate variability was assessed using the control compound.

Row | IC50 | Compound
1 | 0.056 µM | O=C(Cc1cccc2[nH]ccc12)Nc1nnc(CCCCc2nnc(NC(=O)Cc3cccc4[nH]ccc34)s2)s1 [Compound 323]
2 | > 20 µM | O=C(Cc1ccc(C(F)(F)F)cc1)Nc1nnc(CCSCCc2nnc(NC(=O)Cc3ccc(C(F)(F)F)cc3)s2)s1 [Compound 183]
3 | > 20 µM | O=C(Cc1ccc(Cl)s1)Nc1nnc(CCSCCc2nnc(NC(=O)Cc3ccc(Cl)s3)s2)s1 [Compound 206]
4 | 2.3 µM | O=C(COc1ccccc1)Nc1nnc(CCCCc2nnc(NC(=O)COc3ccccc3)s2)s1 [Compound 43]
5 | 1.8 µM | O=C(C[C@@H](O)c1ccccc1)Nc1nnc(CCCCc2nnc(NC(=O)C[C@@H](O)c3ccccc3)s2)s1 [Compound 127]
6 | 21 µM | O=C(CO)Nc1nnc(CCSCCc2nnc(NC(=O)CO)s2)s1 [Compound 253]
7 | 0.12 µM | O=C(Cc1ccccc1)Nc1nnc(CCSCc2nnc(NC(=O)Cc3ccccc3)s2)s1 [Compound 199]
8 | 0.22 µM | CS(=O)(=O)c1cccc(CC(=O)Nc2nnc(CCSCCc3nnc(NC(=O)Cc4cccc(S(C)(=O)=O)c4)s3)s2)c1 [Compound 158]
9 | > 20 µM | O=C(Cc1ccccc1)Nc1nnc(C[C@@H]2C[C@H]2Cc2nnc(NC(=O)Cc3ccccc3)s2)s1 [Compound 1035]
10 | > 20 µM | O=C(Cc1coc2ccccc12)Nc1nnc(CCSCCc2nnc(NC(=O)Cc3coc4ccccc34)s2)s1 [Compound 221]
11 | > 20 µM | O=C(Nc1nnc(CCSCCc2nnc(NC(=O)c3coc4ccccc34)s2)s1)c1coc2ccccc12 [Compound 218]
12 | 40 µM | O=C(Cn1cccn1)Nc1nnc(CCSCCc2nnc(NC(=O)Cn3cccn3)s2)s1 [Compound 57]
13 | > 50 µM | O=C(CCc1ccccc1)Nc1nnc(CCSCCc2nnc(NC(=O)CCc3ccccc3)s2)s1 [Compound 75]
14 | 0.8 µM | O=C(Cc1ccco1)Nc1nnc(CCSCCc2nnc(NC(=O)Cc3ccco3)s2)s1 [Compound 82]
15 | 0.52 µM | COc1ccccc1C(CO)C(=O)Nc1nnc(CCSCCc2nnc(NC(=O)C(CO)c3ccccc3OC)s2)s1 (stereo not shown) [Compound 245]
16 | 0.19 µM | O=C(Cc1ccccc1)Nc1nnc(CCCCc2nnc(NC(=O)C(CO)c3ccccc3)s2)s1 (stereo not shown) [Compound 316]
17 | 0.57 µM | CC[C@](O)(C(=O)Nc1nnc(CCCCc2nnc(NC(=O)[C@@](O)(CC)c3ccccc3)s2)s1)c1ccccc1 [Compound 143]
18 | 14 µM | O=C(Nc1nnc(CCSCCc2nnc(NC(=O)C3Oc4ccccc4O3)s2)s1)C1Oc2ccccc2O1 [Compound 134]

Further lines, the molecule ahead of its results:

Row | Compound | IC50
19 | O=C(Cc1ccsc1)Nc1nnc(CCCCc2nnc(NC(=O)Cc3ccsc3)s2)s1 [Compound 88] | 0.2 µM
20 | CC(C(=O)Nc1nnc(CCCCc2nnc(NC(=O)C(C)c3ccccc3Cl)s2)s1)c1ccccc1Cl (stereo not shown) [Compound 274] | 0.75 µM
21 | O=C(Cc1ccc2ncccc2c1)Nc1nnc(CCCCc2nnc(NC(=O)Cc3ccc4ncccc4c3)s2)s1 [Compound 269] | 0.26 µM
22 | O=C(C[C@@H](O)C(=O)O)Nc1nnc(CCCCc2nnc(NC(=O)C[C@@H](O)C(=O)O)s2)s1 [Compound 154] | 19 µM
23 | CC(CCC(C)c1nnc(NC(=O)Cc2ccccc2)s1)c1nnc(NC(=O)Cc2ccccc2)s1 (stereo not shown) [Compound 289] | 32 µM
24 | O=C(CN1CCOCC1)Nc1nnc(CCSCCc2nnc(NC(=O)CN3CCOCC3)s2)s1 [Compound 12] | > 50 µM
25 | O=C(OCC(C(=O)Nc1nnc(CCCCc2nnc(NC(=O)C(COC(=O)C3CCN(C(=O)OCc4ccccc4)CC3)c3ccccc3)s2)s1)c1ccccc1)C1CCN(C(=O)OCc2ccccc2)CC1 (stereo not shown) [Compound 301] | > 20 µM
26 | O=C(Nc1nnc(CCSCCc2nnc(NC(=O)C3CCCC3)s2)s1)C1CCCC1 [Compound 40] | 3.7 µM
27 | O=C(Cc1cccc(-c2cccc(F)c2)c1)Nc1nnc(CCCCc2nnc(NC(=O)Cc3cccc(-c4cccc(F)c4)c3)s2)s1 [Compound 331] | > 20 µM
28 | NC(C(=O)Nc1nnc(CCSCCc2nnc(NC(=O)C(N)C3CCCC3)s2)s1)C1CCCC1 (stereo not shown) [Compound 125] | > 20 µM
29 | COc1ccc2c(c1)CC(C(=O)Nc1nnc(CCCCc3nnc(NC(=O)C4Cc5cc(OC)ccc5O4)s3)s1)O2 (stereo not shown) [Compound 121] | 1.7 µM
30 | CC(O)(C(=O)Nc1nnc(CCSCCc2nnc(N)s2)s1)C(F)(F)F (stereo not shown) [Compound 56] | > 50 µM
31 | O=C(Nc1nnc(CCCCc2nnc(NC(=O)C3CCCC3)s2)s1)C1CCCC1 [Compound 53] | > 50 µM
32 | CC(=O)OC(C)(C)C(=O)Nc1nnc(CCCCc2nnc(NC(=O)C(C)(C)OC(C)=O)s2)s1 [Compound 96] | > 20 µM
33 | COc1ccc2c(c1)CC(C(=O)Nc1nnc(CCSCCc3nnc(NC(=O)C4Cc5cc(OC)ccc5O4)s3)s1)O2 (stereo not shown) [Compound 117] | 2.4 µM
34 | CC(CO)(CO)C(=O)Nc1nnc(CCCCc2nnc(NC(=O)C(C)(CO)CO)s2)s1 [Compound 151] | 14 µM
35 | O=C(Nc1nnc(CCCCc2nnc(NC(=O)C3CC(O)c4ccccc43)s2)s1)C1CC(O)c2ccccc21 (stereo not shown) [Compound 94] | 0.28 µM

Row | Compound | IC50
36 | O=C(Nc1nnc(CCSCCc2nnc(NC(=O)C3CCOC3)s2)s1)C1CCOC1 (stereo not shown) [Compound 95] | 2.9 µM
37 | O=C(Nc1nnc(CCSCCc2nnc(NC(=O)C3CC4CCC3C4)s2)s1)C1CC2CCC1C2 (stereo not shown) [Compound 38] | > 50 µM
38 | CC(C)(C)C(=O)OCN(C(=O)Cc1ccccc1)c1nnc(CCSCCc2nnc(N(COC(=O)C(C)(C)C)C(=O)Cc3ccccc3)s2)s1 [Compound 16] | > 50 µM
39 | CCOC(=O)Nc1nnc(CCCCc2nnc(NC(=O)Cc3ccccc3)s2)s1 [Compound 244] | 0.84 µM
40 | O=C(Cn1cccn1)Nc1nnc(CCCCc2nnc(NC(=O)Cn3cccn3)s2)s1 [Compound 60] | 24 µM
41 | O=C(OCCCN1CCOCC1)OCN(C(=O)Cc1ccccc1)c1nnc(CCSCCc2nnc(N(COC(=O)OCCCN3CCOCC3)C(=O)Cc3ccccc3)s2)s1 [Compound 28] | > 50 µM
42 | O=C(Nc1nnc(CCCc2nnc(NC(=O)C(O)Cc3ccccc3)s2)s1)C(O)Cc1ccccc1 (stereo not shown) [Compound 170] | 7.4 µM
43 | CCOC(=O)Nc1nnc(CCSCCc2nnc(NC(=O)OCC)s2)s1 [Compound 356] | > 20 µM
44 | COC(=O)C(CC(=O)Nc1nnc(CCCCc2nnc(NC(=O)CC(C(=O)O)c3ccccc3)s2)s1)c1ccccc1 (stereo not shown) [Compound 178] | 1.5 µM
45 | CC(=O)OC(C(=O)Nc1nnc(CCCCc2nnc(NC(=O)C(OC(C)=O)c3ccccc3)s2)s1)c1ccccc1 (stereo not shown) [Compound 173] | 24 µM
46 | CC(C)(C)OC(=O)N1CCN(C(C(=O)Nc2nnc(CCCCc3nnc(NC(=O)C(c4ccccc4)N4CCN(C(=O)OC(C)(C)C)CC4)s3)s2)c2ccccc2)CC1 (stereo not shown) [Compound 63] | 25 µM
47 | CN(C)c1ccc(CC(=O)Nc2nnc(CCCCc3nnc(NC(=O)Cc4ccc(N(C)C)cc4)s3)s2)cc1 [Compound 164] | 0.24 µM
48 | CC(C)(C)OC(=O)N1CCN(C(C(=O)Nc2nnc(CCSCCc3nnc(NC(=O)C(c4ccccc4)N4CCN(C(=O)OC(C)(C)C)CC4)s3)s2)c2ccccc2)CC1 (stereo not shown) [Compound 76] | > 50 µM
49 | O=C(CC1CCCNC1)Nc1nnc(CCSCCc2nnc(NC(=O)CC3CCCNC3)s2)s1 (stereo not shown) [Compound 124] | > 20 µM
50 | O=C(Nc1nnc(CCCCc2nnc(NC(=O)[C@@H](O)Cc3ccccc3)s2)s1)[C@@H](O)Cc1ccccc1 [Compound 146] | 0.43 µM
51 | CCN(C(=O)Cc1ccccc1)c1nnc(CCSCCc2nnc(N(CC)C(=O)Cc3ccccc3)s2)s1 [Compound 150] | > 20 µM

same assay, conditions: read-out: GAC Delta N2 IC50 no preinc

Row | Compound | IC50
52 | O=C(Cc1ccccc1CO)Nc1nnc(CCCCc2nnc(NC(=O)Cc3ccccc3CO)s2)s1 [Compound 208] | 0.17 µM
